# Read-outs that look alike come from different tables or passages of the source.
# Experiments:
# [1] = tested on: bloodstream forms of Trypanosoma brucei; assay: Resazurin cell viability assay, EC50 determinations against T. brucei; format: cell-based, T. b. brucei (strain 427)
# T. brucei [2] = tested on: T. brucei
# T. brucei [3] = assay: microbe, parasite or virus in culture; conditions: Trypanosoma brucei, read-out: EC50 by direct counting of cell growth
# MRC5 cells = assay: Resazurin cell viability counter-screen, EC50 determinations against mammalian cells; format: cell-based, human; conditions: for EC50: Homo sapiens, MRC5, 72 h, read-out: EC50 vs. MRC5
# T. brucei [4] = assay: DMSO tolerance of the resazurin assay, T. brucei; format: cell-based
# Description: (§1) DMSO was serially diluted across a 96-well plate in 200 μl of the appropriate medium. For T. brucei, 100 μl aliquots were then transferred to a plate containing 100 μl cells at 2 × 10^3 ml^−1. Human fibroblasts were plated at 2 × 10^4 ml^−1 in 100 μl of medium and incubated overnight to allow cells to adhere before the addition of medium containing DMSO (100 μl) over a range of concentrations. Parasites and mammalian cells were then incubated for 3 days, after which 20 μl 500-μM resazurin was added to each well. Plates were incubated for a further 4 h before measuring fluorescence as above.
# human fibroblasts (MRC5) = assay: DMSO tolerance of the resazurin assay, human fibroblasts; format: cell-based
# Description: as §1
# [5] = Trypanosoma brucei, 72 h, read-out: EC50 of standard drugs against T. brucei
# [6] = read-out: EC50 of standard drugs against T. brucei
# [7] = Trypanosoma brucei, 72 h, read-out: EC50 vs. T. brucei
compound,measurement,setting,value
"NCCCC(N)(C(=O)O)C(F)F (stereo not shown) [eflornithine, difluoromethylornithine]",EC99 (calculated from EC50 and Hill slope),[1],77 µM
same,EC50,[1]; [5],22400 ± 1100 nM
same,EC50,[1]; [6],22000 nM
same,Time after which cell growth was arrested,T. brucei [2]; 10 × EC50,30 h
same,Effect on T. brucei culture growth,"T. brucei [2]; 10 × EC50, 3 days",cytostatic effect
same,EC50,T. brucei [3],17.1 ± 0.1 µM
N=C(N)c1ccc(OCCCCCOc2ccc(C(=N)N)cc2)cc1 [Pentamidine isethionate],EC99 (calculated/predicted from EC50 and Hill slope),[1],37 nM
same,EC50,[1]; [5],8.1 ± 0.54 nM
same,EC50,[1]; [6],8 nM
same,Selectivity,MRC5 cells,3400
same,Effect on T. brucei culture growth,T. brucei [2],cytocidal effect
same,Time for cell density to drop below the limit of detection (1 × 10^3 cells ml−1),T. brucei [2],≤ 40 h
C[S+](C)[O-] [DMSO],IC50 of DMSO,T. brucei [4]; 3 days incubation,0.80 ± 0.06 % (v/v)
same,Attenuation of fluorescence,T. brucei [4]; DMSO 0.5%,20%
same,IC50 of DMSO,human fibroblasts (MRC5); 3 days incubation,1.04 ± 0.08 % (v/v)
same,Attenuation of fluorescence,human fibroblasts (MRC5); DMSO 0.5%,15%
CC1(C)CCC2=C(O1)c1ccccc1C(=O)C2=O [Beta-Lapachone],EC50,[1]; [7],850 ± 130 nM
same,Selectivity,MRC5 cells,10
same,EC50,MRC5 cells,8.6 ± 2.9 µM
Cc1ccc(C(=O)Nc2ccc(S(=O)(=O)O)c3cc(S(=O)(=O)O)cc(S(=O)(=O)O)c23)cc1NC(=O)c1cccc(NC(=O)Nc2cccc(C(=O)Nc3cc(C(=O)Nc4ccc(S(=O)(=O)O)c5cc(S(=O)(=O)O)cc(S(=O)(=O)O)c45)ccc3C)c2)c1 [Suramin hexasodium],EC50,[1]; [5],20.1 ± 1.1 nM
same,EC50,[1]; [7],< 70 nM
same,EC50,[1]; read-out: EC50 vs. T. brucei,68 ± 3.5 nM
same,Selectivity,MRC5 cells,>710
same,Selectivity / specificity for T. brucei over human fibroblasts,MRC5 cells,> 700 fold
same,EC50,MRC5 cells,> 50 µM

# Source: publication PMC3025325, “Identification of a κ-opioid agonist as a potent and selective lead for drug development against human African trypanosomiasis” (Biochemical Pharmacology, 2010)
